Values joined by “and” are separate entries in the source; they are usually repeats but may differ in a detail not shown here. Equal entries are not always repeated.
Assays:
Type in all cases: cell-based
kinases in BCWM.1 cells [1] = target: kinases in BCWM.1 cells (Homo sapiens, UniProt Q04759); conditions: PKCt; ATP Loop; 1 μM, 90 min; GF
Description: (§1) The cells were harvested and lysed. […] Bound kinases were identified and quantitated by ACTIVX as described in Patricelli et al., Biochemistry, 2007, 46(2): 350-358. The compounds were tested in duplicates against duplicate or quadruplicate control samples.

kinases in BCWM.1 cells [2] = target: kinases in BCWM.1 cells (Homo sapiens, UniProt P11802); conditions: CDK4; Lys2; 1 μM; GF
Description: as §1

kinases in BCWM.1 cells [3] = target: kinases in BCWM.1 cells (Homo sapiens, UniProt Q5S007); conditions: LRRK2; Lys2; 1 μM; GF
Description: as §1

kinases in BCWM.1 cells [4] = target: kinases in BCWM.1 cells (Homo sapiens, UniProt P49760); conditions: CLK2; Lys2; 1 μM; GF
Description: as §1

kinases in BCWM.1 cells [5] = target: kinases in BCWM.1 cells (Homo sapiens, UniProt P15056); conditions: BRAF; Lys2; 1 μM; GF
Description: as §1

kinases in BCWM.1 cells [6] = target: kinases in BCWM.1 cells (Homo sapiens, UniProt P49841); conditions: GSK3B; Lys2; 1 μM; GF
Description: as §1

kinases in BCWM.1 cells [7] = target: kinases in BCWM.1 cells (Homo sapiens, UniProt Q14680); conditions: MELK; Lys2; 1 μM; GF
Description: as §1

kinases in BCWM.1 cells [8] = target: kinases in BCWM.1 cells (Homo sapiens, UniProt P31749); conditions: AKT1; ATP Loop; 1 μM; GF
Description: as §1

kinases in BCWM.1 cells [9] = target: kinases in BCWM.1 cells (Homo sapiens, UniProt O15111); conditions: IKKa; Lys2; 1 μM; GF
Description: as §1

kinases in BCWM.1 cells [10] = target: kinases in BCWM.1 cells (Homo sapiens, UniProt Q96RR4); conditions: CaMKK2; Lys2; 1 μM; GF
Description: as §1

kinases in BCWM.1 cells [11] = target: kinases in BCWM.1 cells (Homo sapiens, UniProt P19784); conditions: CK2a2; Lys2; 1 μM; GF
Description: as §1

kinases in BCWM.1 cells [12] = target: kinases in BCWM.1 cells (Homo sapiens, UniProt O94804); conditions: LOK; Lys2; 1 μM; GF
Description: as §1

kinases in BCWM.1 cells [13] = target: kinases in BCWM.1 cells (Homo sapiens, UniProt P41279); conditions: COT; ATP Loop; 1 μM; GF
Description: as §1

kinases in BCWM.1 cells [14] = target: kinases in BCWM.1 cells (Homo sapiens, UniProt P17612); conditions: PKACa; Lys2; 1 μM, 90 min; GF
Description: as §1

kinases in BCWM.1 cells [15] = target: kinases in BCWM.1 cells (Homo sapiens, UniProt P06239); conditions: LCK; Activation Loop; 1 μM; GF
Description: as §1

kinases in BCWM.1 cells [16] = target: kinases in BCWM.1 cells (Homo sapiens, UniProt P41240); conditions: CSK; Activation Loop; 1 μM; GF
Description: as §1

kinases in BCWM.1 cells [17] = target: kinases in BCWM.1 cells (Homo sapiens, UniProt Q9P2K8); conditions: GCN2; Lys2; 1 μM; GF
Description: as §1

kinases in BCWM.1 cells [18] = target: kinases in BCWM.1 cells (Homo sapiens, UniProt Q86UX6); conditions: YANK3; Lys2; 1 μM, 90 min; GF
Description: as §1

kinases in BCWM.1 cells [19] = target: kinases in BCWM.1 cells (Homo sapiens, UniProt P45985); conditions: MAP2K4; Lys2; 1 μM; GF
Description: as §1

kinases in BCWM.1 cells [20] = target: kinases in BCWM.1 cells (Homo sapiens, UniProt P50613); conditions: CDK7; Lys2; 1 μM; GF
Description: as §1

kinases in BCWM.1 cells [21] = target: kinases in BCWM.1 cells (Homo sapiens, UniProt Q06187); conditions: BTK; Activation Loop; 1 μM; GF
Description: as §1

kinases in BCWM.1 cells [22] = target: kinases in BCWM.1 cells (Homo sapiens, UniProt Q13164); conditions: Erk5; Lys2; 1 μM; GF
Description: as §1

kinases in BCWM.1 cells [23] = target: kinases in BCWM.1 cells (Homo sapiens, UniProt P54762); conditions: EphB1; Activation Loop; 1 μM; GF
Description: as §1

kinases in BCWM.1 cells [24] = target: kinases in BCWM.1 cells (Homo sapiens, UniProt Q16513); conditions: PKN2; Lys2; 1 μM, 90 min; GF
Description: as §1

kinases in BCWM.1 cells [25] = target: kinases in BCWM.1 cells (Homo sapiens, UniProt Q99759); conditions: MAP3K3; Lys1; 1 μM; GF
Description: as §1

kinases in BCWM.1 cells [26] = target: kinases in BCWM.1 cells (Homo sapiens, UniProt Q8IVH8); conditions: KHS2; Lys1; 1 μM; GF
Description: as §1

kinases in BCWM.1 cells [27] = target: kinases in BCWM.1 cells (Homo sapiens, UniProt Q16584); conditions: MLK3; Lys2; 1 μM; GF
Description: as §1

kinases in BCWM.1 cells [28] = target: kinases in BCWM.1 cells (Homo sapiens, UniProt P27361); conditions: Erk1; Lys2; 1 μM; GF
Description: as §1

kinases in BCWM.1 cells [29] = target: kinases in BCWM.1 cells (Homo sapiens, UniProt Q13557); conditions: CaMK2d; Lys1; 1 μM; GF
Description: as §1

kinases in BCWM.1 cells [30] = target: kinases in BCWM.1 cells (Homo sapiens, UniProt O00506); conditions: YSK1; Lys1; 1 μM, 90 min; GF
Description: as §1

Sequence of kinases in BCWM.1 cells (Homo sapiens, UniProt P11802) (P11802 2-303 limits assumed): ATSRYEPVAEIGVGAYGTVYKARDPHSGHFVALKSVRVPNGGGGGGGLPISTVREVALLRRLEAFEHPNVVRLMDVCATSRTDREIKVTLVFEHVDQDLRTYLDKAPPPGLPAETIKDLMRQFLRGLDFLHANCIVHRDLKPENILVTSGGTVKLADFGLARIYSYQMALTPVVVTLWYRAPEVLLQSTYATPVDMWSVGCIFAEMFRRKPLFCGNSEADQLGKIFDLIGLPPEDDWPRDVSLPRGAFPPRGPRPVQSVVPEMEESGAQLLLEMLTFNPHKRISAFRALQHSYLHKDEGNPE
Sequence of kinases in BCWM.1 cells (Homo sapiens, UniProt Q13557) (Q13557 2-499 limits assumed): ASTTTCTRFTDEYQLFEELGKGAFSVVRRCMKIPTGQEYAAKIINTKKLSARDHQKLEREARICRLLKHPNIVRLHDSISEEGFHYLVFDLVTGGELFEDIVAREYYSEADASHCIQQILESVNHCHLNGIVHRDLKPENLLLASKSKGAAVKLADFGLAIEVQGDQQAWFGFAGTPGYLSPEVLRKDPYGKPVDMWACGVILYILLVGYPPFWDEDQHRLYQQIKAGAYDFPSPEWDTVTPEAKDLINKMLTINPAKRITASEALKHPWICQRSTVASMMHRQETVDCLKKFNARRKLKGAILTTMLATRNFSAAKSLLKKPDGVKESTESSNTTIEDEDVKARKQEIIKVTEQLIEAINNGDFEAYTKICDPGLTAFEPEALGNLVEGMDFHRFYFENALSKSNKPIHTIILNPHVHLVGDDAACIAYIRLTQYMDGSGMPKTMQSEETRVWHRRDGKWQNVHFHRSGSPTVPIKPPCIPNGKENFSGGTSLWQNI
Sequence of kinases in BCWM.1 cells (Homo sapiens, UniProt P54762) (P54762 18-984 limits assumed): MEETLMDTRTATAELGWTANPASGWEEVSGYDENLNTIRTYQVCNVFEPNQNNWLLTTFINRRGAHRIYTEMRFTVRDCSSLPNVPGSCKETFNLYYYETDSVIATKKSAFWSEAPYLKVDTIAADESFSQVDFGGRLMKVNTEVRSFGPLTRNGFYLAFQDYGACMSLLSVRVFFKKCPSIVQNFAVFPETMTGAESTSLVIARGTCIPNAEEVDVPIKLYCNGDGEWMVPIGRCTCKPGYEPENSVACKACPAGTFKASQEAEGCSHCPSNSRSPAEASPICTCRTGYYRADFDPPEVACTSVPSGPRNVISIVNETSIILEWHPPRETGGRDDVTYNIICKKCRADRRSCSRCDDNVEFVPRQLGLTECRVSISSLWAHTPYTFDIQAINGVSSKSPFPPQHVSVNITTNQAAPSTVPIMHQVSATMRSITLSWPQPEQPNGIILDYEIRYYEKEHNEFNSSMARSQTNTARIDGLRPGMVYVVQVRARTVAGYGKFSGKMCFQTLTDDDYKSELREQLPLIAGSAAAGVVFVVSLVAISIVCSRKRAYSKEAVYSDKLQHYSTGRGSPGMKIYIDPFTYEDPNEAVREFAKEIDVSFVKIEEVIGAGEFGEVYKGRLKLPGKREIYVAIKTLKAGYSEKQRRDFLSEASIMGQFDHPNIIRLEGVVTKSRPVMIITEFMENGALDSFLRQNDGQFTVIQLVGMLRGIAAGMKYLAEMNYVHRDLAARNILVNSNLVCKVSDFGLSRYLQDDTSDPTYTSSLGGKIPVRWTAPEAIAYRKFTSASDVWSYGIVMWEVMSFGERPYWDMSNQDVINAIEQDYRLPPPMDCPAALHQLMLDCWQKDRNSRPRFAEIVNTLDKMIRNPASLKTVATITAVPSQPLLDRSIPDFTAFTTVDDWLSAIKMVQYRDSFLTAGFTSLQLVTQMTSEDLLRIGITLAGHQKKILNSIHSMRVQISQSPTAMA
Sequence of kinases in BCWM.1 cells (Homo sapiens, UniProt P15056) (P15056 2-766 limits assumed): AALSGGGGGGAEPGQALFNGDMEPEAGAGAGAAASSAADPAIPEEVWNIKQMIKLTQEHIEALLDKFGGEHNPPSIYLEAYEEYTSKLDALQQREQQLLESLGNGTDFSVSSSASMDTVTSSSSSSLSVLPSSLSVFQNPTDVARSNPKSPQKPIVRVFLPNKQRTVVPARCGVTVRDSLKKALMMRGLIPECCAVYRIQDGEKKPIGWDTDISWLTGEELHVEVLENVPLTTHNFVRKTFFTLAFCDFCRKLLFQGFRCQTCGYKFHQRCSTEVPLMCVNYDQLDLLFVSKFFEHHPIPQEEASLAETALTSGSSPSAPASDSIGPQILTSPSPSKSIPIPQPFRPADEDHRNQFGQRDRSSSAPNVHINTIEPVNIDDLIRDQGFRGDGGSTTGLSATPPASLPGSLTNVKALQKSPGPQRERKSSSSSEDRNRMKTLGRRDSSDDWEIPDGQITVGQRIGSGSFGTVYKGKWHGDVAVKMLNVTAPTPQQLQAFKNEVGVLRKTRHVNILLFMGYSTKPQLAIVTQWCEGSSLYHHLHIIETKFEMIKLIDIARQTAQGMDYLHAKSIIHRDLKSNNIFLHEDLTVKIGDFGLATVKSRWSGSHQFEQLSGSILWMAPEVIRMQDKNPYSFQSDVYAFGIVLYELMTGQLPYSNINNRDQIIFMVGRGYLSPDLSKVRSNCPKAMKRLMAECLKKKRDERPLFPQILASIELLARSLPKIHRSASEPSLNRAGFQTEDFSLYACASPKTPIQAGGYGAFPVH
Sequence of kinases in BCWM.1 cells (Homo sapiens, UniProt Q06187) (Q06187 2-659 limits assumed): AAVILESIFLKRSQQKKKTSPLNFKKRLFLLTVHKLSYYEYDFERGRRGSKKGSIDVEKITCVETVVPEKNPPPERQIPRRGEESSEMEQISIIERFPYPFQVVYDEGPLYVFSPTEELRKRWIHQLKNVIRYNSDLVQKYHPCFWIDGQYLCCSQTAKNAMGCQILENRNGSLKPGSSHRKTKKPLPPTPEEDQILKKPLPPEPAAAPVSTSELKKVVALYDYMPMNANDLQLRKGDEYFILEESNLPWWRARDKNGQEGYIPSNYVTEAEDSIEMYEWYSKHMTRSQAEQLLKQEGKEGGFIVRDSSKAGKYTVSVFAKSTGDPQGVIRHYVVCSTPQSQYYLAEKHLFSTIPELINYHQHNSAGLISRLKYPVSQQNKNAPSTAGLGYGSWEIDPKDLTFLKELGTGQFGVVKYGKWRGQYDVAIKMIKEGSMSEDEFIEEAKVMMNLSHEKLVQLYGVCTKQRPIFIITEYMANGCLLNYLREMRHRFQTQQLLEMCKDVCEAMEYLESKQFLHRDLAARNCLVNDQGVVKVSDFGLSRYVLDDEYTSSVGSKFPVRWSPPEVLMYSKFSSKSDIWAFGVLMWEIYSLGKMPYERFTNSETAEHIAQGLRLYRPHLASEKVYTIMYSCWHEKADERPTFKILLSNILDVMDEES
Sequence of kinases in BCWM.1 cells (Homo sapiens, UniProt P45985) (P45985 2-399 limits assumed): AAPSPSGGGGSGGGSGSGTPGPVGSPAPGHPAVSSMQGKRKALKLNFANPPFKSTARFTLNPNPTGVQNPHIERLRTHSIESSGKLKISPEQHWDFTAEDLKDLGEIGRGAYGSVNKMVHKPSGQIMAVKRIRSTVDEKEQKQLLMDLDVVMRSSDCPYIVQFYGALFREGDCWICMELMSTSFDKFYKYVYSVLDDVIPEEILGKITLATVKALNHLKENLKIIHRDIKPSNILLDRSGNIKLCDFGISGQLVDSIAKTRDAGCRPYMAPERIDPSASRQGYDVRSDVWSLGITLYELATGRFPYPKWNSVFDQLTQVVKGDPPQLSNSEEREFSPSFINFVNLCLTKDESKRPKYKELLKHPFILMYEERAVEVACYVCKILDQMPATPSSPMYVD
Sequence of kinases in BCWM.1 cells (Homo sapiens, UniProt P41240) (P41240 2-450 limits assumed): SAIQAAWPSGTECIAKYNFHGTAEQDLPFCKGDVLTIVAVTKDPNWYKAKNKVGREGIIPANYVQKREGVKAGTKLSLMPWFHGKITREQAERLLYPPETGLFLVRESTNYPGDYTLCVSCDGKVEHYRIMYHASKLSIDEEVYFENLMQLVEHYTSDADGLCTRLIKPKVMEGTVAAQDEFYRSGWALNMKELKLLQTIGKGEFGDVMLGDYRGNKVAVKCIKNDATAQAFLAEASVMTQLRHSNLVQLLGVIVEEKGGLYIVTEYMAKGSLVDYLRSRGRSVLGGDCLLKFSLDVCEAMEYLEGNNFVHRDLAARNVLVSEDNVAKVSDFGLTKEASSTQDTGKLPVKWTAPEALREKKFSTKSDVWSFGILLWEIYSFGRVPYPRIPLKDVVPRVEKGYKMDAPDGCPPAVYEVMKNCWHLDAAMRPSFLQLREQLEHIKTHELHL
Sequence of kinases in BCWM.1 cells (Homo sapiens, UniProt P50613) (P50613 2-346 limits assumed): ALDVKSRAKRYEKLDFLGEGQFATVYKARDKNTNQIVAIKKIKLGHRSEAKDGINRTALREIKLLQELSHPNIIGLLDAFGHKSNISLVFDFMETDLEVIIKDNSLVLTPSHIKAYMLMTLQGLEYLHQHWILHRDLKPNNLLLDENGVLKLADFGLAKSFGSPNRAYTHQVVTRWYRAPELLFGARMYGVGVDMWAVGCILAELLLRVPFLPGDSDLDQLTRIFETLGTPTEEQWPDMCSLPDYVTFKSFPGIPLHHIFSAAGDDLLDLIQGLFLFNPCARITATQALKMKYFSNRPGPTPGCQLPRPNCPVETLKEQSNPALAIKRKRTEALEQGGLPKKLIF
Sequence of kinases in BCWM.1 cells (Homo sapiens, UniProt Q96RR4) (Q96RR4 2-588 limits assumed): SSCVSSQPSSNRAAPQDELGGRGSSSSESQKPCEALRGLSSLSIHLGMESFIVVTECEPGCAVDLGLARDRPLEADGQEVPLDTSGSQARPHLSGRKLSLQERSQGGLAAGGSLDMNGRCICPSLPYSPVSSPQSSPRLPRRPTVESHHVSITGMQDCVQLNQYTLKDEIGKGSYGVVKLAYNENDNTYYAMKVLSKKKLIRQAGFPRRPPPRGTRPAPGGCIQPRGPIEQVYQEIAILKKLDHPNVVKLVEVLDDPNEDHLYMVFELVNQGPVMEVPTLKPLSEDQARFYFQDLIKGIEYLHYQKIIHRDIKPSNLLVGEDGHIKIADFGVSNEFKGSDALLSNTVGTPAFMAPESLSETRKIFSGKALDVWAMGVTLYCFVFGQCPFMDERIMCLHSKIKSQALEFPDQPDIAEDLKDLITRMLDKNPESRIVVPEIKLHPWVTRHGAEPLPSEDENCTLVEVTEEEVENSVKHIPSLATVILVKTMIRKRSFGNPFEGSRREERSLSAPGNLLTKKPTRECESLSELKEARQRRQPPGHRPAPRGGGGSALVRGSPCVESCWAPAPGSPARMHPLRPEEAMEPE

`C=CC(=O)N1CC[C@H](Nc2nccc(Nc3ncc(C(=O)Nc4c(C)cccc4C)s3)n2)C1` [Example I-3] was tested. Which “% change of MS signal compared to control sample” value (kinases in BCWM.1 cells [1]) did it give?
Its value is 23.5%.

Which results are given for `CCC(=O)N1CC[C@H](Nc2nccc(Nc3ncc(C(=O)Nc4c(C)cccc4C)s3)n2)C1` [Example I-9]?
% change of MS signal compared to control sample (kinases in BCWM.1 cells [2]): 1.2% and 3.4%; % change of MS signal compared to control sample (kinases in BCWM.1 cells [3]): −26.4% and −21.7%; % change of MS signal compared to control sample (kinases in BCWM.1 cells [4]): −19.3% and −10.6%; % change of MS signal compared to control sample (kinases in BCWM.1 cells [5]): −18.3% and −12.9%; % change of MS signal compared to control sample (kinases in BCWM.1 cells [6]): −9.8% and −1.3%; % change of MS signal compared to control sample (kinases in BCWM.1 cells [7]): −9.6% and −9.5%; % change of MS signal compared to control sample (kinases in BCWM.1 cells [8]): −25.1% and −16.8%; % change of MS signal compared to control sample (kinases in BCWM.1 cells [9]): −3.3% and −0.4%; % change of MS signal compared to control sample (kinases in BCWM.1 cells [10]): −4.9% and 0.5%; % change of MS signal compared to control sample (kinases in BCWM.1 cells [11]): 7% and −1.8%; % change of MS signal compared to control sample (kinases in BCWM.1 cells [12]): 26.2% and 15.2%; % change of MS signal compared to control sample (kinases in BCWM.1 cells [13]): −37.3% and −40.3%; % change of MS signal compared to control sample (kinases in BCWM.1 cells [14]): −8.4%; % change of MS signal compared to control sample (kinases in BCWM.1 cells [15]): 61.6% and 82.8%; % change of MS signal compared to control sample (kinases in BCWM.1 cells [16]): −6% and 1.5%; % change of MS signal compared to control sample (kinases in BCWM.1 cells [17]): −18.8% and −10.7%; % change of MS signal compared to control sample (kinases in BCWM.1 cells [18]): −13.2%; % change of MS signal compared to control sample (kinases in BCWM.1 cells [19]): −5.4% and −2.1%; % change of MS signal compared to control sample (kinases in BCWM.1 cells [20]): 1.3% and 5.1%; % change of MS signal compared to control sample (kinases in BCWM.1 cells [21]): 96.7% and 70.7%; % change of MS signal compared to control sample (kinases in BCWM.1 cells [22]): −1.8% and 1.1%; % change of MS signal compared to control sample (kinases in BCWM.1 cells [23]): 53.3% and 78.9%; % change of MS signal compared to control sample (kinases in BCWM.1 cells [24]): 13.6%; % change of MS signal compared to control sample (kinases in BCWM.1 cells [25]): −13.7% and −19.7%; % change of MS signal compared to control sample (kinases in BCWM.1 cells [26]): −23.6% and −22.7%; % change of MS signal compared to control sample (kinases in BCWM.1 cells [27]): 24.1%; % change of MS signal compared to control sample (kinases in BCWM.1 cells [28]): −3.1% and 3.1%; % change of MS signal compared to control sample (kinases in BCWM.1 cells [29]): −8.1% and −8.2%; % change of MS signal compared to control sample (kinases in BCWM.1 cells [30]): −20.8%

Source: patent US10844077B2, “Thiazolyl-containing compounds for treating proliferative diseases” (Dana-Farber Cancer Institute, Inc., priority 2014, dated 2020)
